Test results taken from patent publication US20260167615A1, “COMPOUNDS AND COMPOSITIONS AS GPR52 MODULATORS” (Neurocrine Biosciences, Inc., priority 2022, published 2026).
pEC50: −log10 of the molar value.

Molecular target: recombinant human GPR52 (Homo sapiens, UniProt Q9Y2T5)
Test: HTRF cAMP assay, GPR52 activity (Example A)
Type: cell-based
Settings: for pEC50: average EC50 (n=1 to 15), Flp-In-CHO cells stably expressing recombinant human GPR52, cAMP HTRF, read-out: EC50 (N=); for Emax: maximum cAMP at 10 μM or 31.6 μM test compound, as percentage of Emax of control compound 4-(3-(3-fluoro-5-(trifluoromethyl)benzyl)-5-methyl-4,5-dihydro-1H-1,2,4-triazol-1-yl)-2-methylbenzamide
Experimental: Compounds of Formula I were assessed for their ability to modulate GPR52 activity. HTRF CAMP assays were performed using a commercially available assay kit (CAMP Gs HiRange HTRF®, CisBio). Controls and compounds were solubilized in DMSO and 62.5 nanoliters of the diluted compounds were transferred into 384-well NBS assay plates via acoustic or precision low-volume dispensing. Compounds were further diluted to 1× with the addition of 20,000 cells per well. Flp-In™—CHO cells that stably express recombinant human GPR52 were used in the assay.
Cells were harvested with cell stripper and resuspended in stimulation buffer. After thirty minutes incubation at room temperature, detection reagents were added to each well. Plates were then incubated for an additional 30 minutes at room temperature. CAMP produced by the cells during the first incubation period competes with d2-labeled CAMP for binding to an anti-cAMP monoclonal antibody labeled with europium cryptate. The measured signal was inversely proportional to the concentration of cAMP produced by the cells and this signal was quantified using a PHERAstar® multi-mode plate reader.
Dose-response curves were generated from the HTRF counts that have been transformed based on a CAMP referenced curve, and then normalized to the positive control. EC50 values were obtained using a nonlinear regression curve-fitting program. […] The Emax (Table 13) is the maximum amount of cAMP (nM) produced by incubation of the cells with 10 μM or 31.6 μM of a test compound. The compound is defined by the top plateau of the sigmoid curve fit. The curve is then normalized to a control compound, in this case 4-(3-(3-fluoro-5-(trifluoromethyl)benzyl)-5-methyl-4,5-dihydro-1H-1,2,4-triazol-1-yl)-2-methylbenzamide (Tokumaru, K., et al., “Design, synthesis, and pharmacological evaluation of 4-azolyl-benzamide derivatives as novel GPR52 agonists”, Bioorganic & Medicinal Chemistry, Volume 25, Issue 12, June 2017, pages 3098-3115), and expressed as a percentage of the Emax of that control compound.

recombinant human GPR52, sequence (Q9Y2T5 whole entry): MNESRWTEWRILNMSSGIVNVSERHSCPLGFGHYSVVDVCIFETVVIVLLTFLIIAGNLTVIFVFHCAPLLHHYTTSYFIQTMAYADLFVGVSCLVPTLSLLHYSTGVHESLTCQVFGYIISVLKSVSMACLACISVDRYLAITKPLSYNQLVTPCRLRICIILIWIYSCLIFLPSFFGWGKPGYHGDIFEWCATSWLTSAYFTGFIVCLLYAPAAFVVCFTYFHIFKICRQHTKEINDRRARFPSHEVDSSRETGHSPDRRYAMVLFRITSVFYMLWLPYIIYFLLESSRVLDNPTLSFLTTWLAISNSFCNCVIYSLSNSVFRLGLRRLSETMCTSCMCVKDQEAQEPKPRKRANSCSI

| pEC50 | Emax [%] | SMILES |
| --- | --- | --- |
| 5.70 to 6.00 | 77 | CCc1cc(-c2cc(Oc3cnc4c(C)nn(C)c4c3)ccn2)cc(F)c1C(N)=O [Example 34, 4-(4-((1,3-dimethyl-1H-pyrazolo[4,3-b]pyridin-6-yl)oxy)pyridin-2-yl)-2-ethyl-6-fluorobenzamide] |
| 6.00 to 7.00 | 85 | CNc1cc(-c2cc(Oc3ccc4c(C)nn(C)c4c3)ccn2)ccc1C(N)=O [Example 35, 4-(4-((1,3-dimethyl-1H-indazol-6-yl)oxy)pyridin-2-yl)-2-(methylamino)benzamide] |
| > 7.60 | 105 | CCc1cc(-c2cc(Oc3cc(F)c4cnn(C)c4c3)ccn2)ccc1C(N)=O [Example 36, 2-ethyl-4-(4-((4-fluoro-1-methyl-1H-indazol-6-yl)oxy)pyridin-2-yl)benzamide] |
| 6.00 to 7.00 | 81 | Cc1cc(-c2cc(Oc3ccc4c(C(F)(F)F)nn(C)c4c3)ccn2)ccc1C(N)=O [Example 37, 2-methyl-4-(4-((1-methyl-3-(trifluoromethyl)-1H-indazol-6-yl)oxy)pyridin-2-yl)benzamide] |
| 7.00 to 7.60 | 104 | CCc1cc(-c2cc(Oc3cc(F)c4c(C)nn(C)c4c3)ccn2)ccc1C(N)=O [Example 38, 2-ethyl-4-(4-((4-fluoro-1,3-dimethyl-1H-indazol-6-yl)oxy)pyridin-2-yl)benzamide] |
| 7.00 to 7.60 | 104 | Cc1cc(-c2cc(Oc3cc(F)c4cnn(C)c4c3)ccn2)ccc1C(N)=O [Example 39, 4-(4-((4-fluoro-1-methyl-1H-indazol-6-yl)oxy)pyridin-2-yl)-2-methylbenzamide] |
| 7.00 to 7.60 | 92 | Cc1nn(C)c2cc(Oc3ccnc(-c4ccc(C(N)=O)c(Cl)c4)c3)ccc12 [Example 40, 2-chloro-4-(4-((1,3-dimethyl-1H-indazol-6-yl)oxy)pyridin-2-yl)benzamide] |
| 6.00 to 7.00 | 125 | CCc1cc(-c2cc(Oc3ccc4cn[nH]c4c3)ccn2)ccc1C(N)=O [Example 41, 4-(4-((1H-indazol-6-yl)oxy)pyridin-2-yl)-2-ethylbenzamide] |
| 6.00 to 7.00 | 83 | Cc1nn(C)c2cc(Oc3ccnc(-c4ccc(C(N)=O)c(C(F)(F)F)c4)c3)ccc12 [Example 42, 4-(4-((1,3-dimethyl-1H-indazol-6-yl)oxy)pyridin-2-yl)-2-(trifluoromethyl)benzamide] |
| 6.00 to 7.00 | 103 | Cc1cc(-c2cc(Oc3ccc4cnn(C)c4c3)ccn2)ccc1C(N)=O [Example 43, 2-methyl-4-(4-((1-methyl-1H-indazol-6-yl)oxy)pyridin-2-yl)benzamide] |
| 6.00 to 7.00 | 91 | CCn1ncc2ccc(Oc3ccnc(-c4ccc(C(N)=O)c(C)c4)c3)cc21 [Example 44, 4-(4-((1-ethyl-1H-indazol-6-yl)oxy)pyridin-2-yl)-2-methylbenzamide] |
| 6.00 to 7.00 | 88 | Cn1ncc2ccc(Oc3ccnc(-c4ccc(C(N)=O)c(Cl)c4)c3)cc21 [Example 45, 2-chloro-4-(4-((1-methyl-1H-indazol-6-yl)oxy)pyridin-2-yl)benzamide] |
| 6.00 to 7.00 | 63 | CCc1cc(-c2cc(Oc3cc(C)c4cnn(C)c4c3)ccn2)ccc1C(N)=O [Example 46, 4-(4-((1,4-dimethyl-1H-indazol-6-yl)oxy)pyridin-2-yl)-2-ethylbenzamide] |
| 6.00 to 7.00 | 88 | Cn1ncc2ccc(Oc3ccnc(-c4ccc(C(N)=O)c(C(F)(F)F)c4)c3)cc21 [Example 47, 4-(4-((1-methyl-1H-indazol-6-yl)oxy)pyridin-2-yl)-2-(trifluoromethyl)benzamide] |
| 6.00 to 7.00 | 118 | CCc1cc(-c2cc(Oc3ccc4c(C#N)nn(C)c4c3)ccn2)ccc1C(N)=O [Example 48, 4-(4-((3-cyano-1-methyl-1H-indazol-6-yl)oxy)pyridin-2-yl)-2-ethylbenzamide] |
| 6.00 to 7.00 | 53 | Cc1cc(-c2cc(Oc3ccc4c(N)nn(C)c4c3)ccn2)ccc1C(N)=O [Example 49, 4-(4-((3-amino-1-methyl-1H-indazol-6-yl)oxy)pyridin-2-yl)-2-methylbenzamide] |
| 6.00 to 7.00 | 78 | Cc1cnc(-c2ccc(C(N)=O)c(C)c2)cc1Oc1ccc2cnn(C)c2c1 [Example 50, 2-methyl-4-(5-methyl-4-((1-methyl-1H-indazol-6-yl)oxy)pyridin-2-yl)benzamide] |

| pEC50 | Emax [%] | SMILES |
| --- | --- | --- |
| 5.70 to 6.00 | 96 | Cc1cc(-c2cccc(Oc3ccc4cnn(C)c4c3)c2)ccc1C(N)=O [Example 51, 3-methyl-3′-((1-methyl-1H-indazol-6-yl)oxy)-[1,1′-biphenyl]-4-carboxamide] |
| 5.70 to 6.00 | 86 | CCc1cc(-c2cccc(Oc3ccc4cnn(C)c4c3)c2)ccc1C(N)=O [Example 52, 3-ethyl-3′-((1-methyl-1H-indazol-6-yl)oxy)-[1,1′-biphenyl]-4-carboxamide] |
| 7.00 to 7.60 | 105 | CCc1cc(-c2cc(Oc3ccc4c(C)nn(C)c4c3)ccn2)ccc1C(N)=O [Example 53, 4-(4-((1,3-dimethyl-1H-indazol-6-yl)oxy)pyridin-2-yl)-2-ethylbenzamide] |
| 6.00 to 7.00 | 110 | Cc1cc(-c2cc(Oc3cnc4c(c3)c(C)nn4C)ccn2)ccc1C(N)=O [Example 54, 4-(4-((1,3-dimethyl-1H-pyrazolo[3,4-b]pyridin-5-yl)oxy)pyridin-2-yl)-2-methylbenzamide] |
| 7.00 to 7.60 | 108 | CCc1cc(-c2cc(Oc3cnc4c(c3)c(C)nn4C)ccn2)ccc1C(N)=O [Example 55, 4-(4-((1,3-dimethyl-1H-pyrazolo[3,4-b]pyridin-5-yl)oxy)pyridin-2-yl)-2-ethylbenzamide] |
| 7.00 to 7.60 | 100 | CCc1cc(-c2cc(Oc3cnc4c(c3)c(C(F)(F)F)nn4C)ccn2)ccc1C(N)=O [Example 56, 2-ethyl-4-(4-((1-methyl-3-(trifluoromethyl)-1H-pyrazolo[3,4-b]pyridin-5-yl)oxy)pyridin-2-yl)benzamide] |
| 7.00 to 7.60 | 104 | CCc1cc(-c2cc(Oc3ccc4c(c3)c(C)nn4C)ccn2)ccc1C(N)=O [Example 57, 4-(4-((1,3-dimethyl-1H-indazol-5-yl)oxy)pyridin-2-yl)-2-ethylbenzamide] |
| 7.00 to 7.60 | 108 | Cc1cc(-c2cc(Oc3ccc4c(c3)c(C)nn4C)ccn2)ccc1C(N)=O [Example 58, 4-(4-((1,3-dimethyl-1H-indazol-5-yl)oxy)pyridin-2-yl)-2-methylbenzamide] |
| 6.00 to 7.00 | 95 | CCc1cc(-c2cc(Oc3ccc4cnn(C)c4c3)ccn2)ccc1C(=O)NC [Example 59, 2-ethyl-N-methyl-4-(4-((1-methyl-1H-indazol-6-yl)oxy)pyridin-2-yl)benzamide] |
| 6.00 to 7.00 | 102 | CCc1cc(-c2cc(Oc3cnc4c(C)nn(C)c4c3)ccn2)ccc1C(=O)NC [Example 60, 4-(4-((1,3-dimethyl-1H-pyrazolo[4,3-b]pyridin-6-yl)oxy)pyridin-2-yl)-2-ethyl-N-methylbenzamide] |
| 6.00 to 7.00 | 81 | CCc1cc(-c2cc(Oc3cnc4c(C(F)(F)F)nn(C)c4c3)ccn2)ccc1C(=O)NC [Example 61, 2-ethyl-N-methyl-4-(4-((1-methyl-3-(trifluoromethyl)-1H-pyrazolo[4,3-b]pyridin-6-yl)oxy)pyridin-2-yl)benzamide] |
| 6.00 to 7.00 | 84 | CNC(=O)c1ccc(-c2cc(Oc3ccc4cnn(C)c4c3)ccn2)cc1C [Example 62, N,2-dimethyl-4-(4-((1-methyl-1H-indazol-6-yl)oxy)pyridin-2-yl)benzamide] |
| 6.00 to 7.00 | 70 | CCNC(=O)c1ccc(-c2cc(Oc3ccc4cnn(C)c4c3)ccn2)cc1C [Example 63, N-ethyl-2-methyl-4-(4-((1-methyl-1H-indazol-6-yl)oxy)pyridin-2-yl)benzamide] |
| 6.00 to 7.00 | 81 | CCc1cc(-c2cc(Oc3ccc4c(C(F)(F)F)nn(C)c4c3)ccn2)ccc1C(=O)NC [Example 64, 2-ethyl-N-methyl-4-(4-((1-methyl-3-(trifluoromethyl)-1H-indazol-6-yl)oxy)pyridin-2-yl)benzamide] |
| 5.70 to 6.00 | 83 | CCc1cc(-c2cccc(Oc3ccc4cnn(C)c4c3)c2)ccc1C(=O)NC [Example 65, 3-ethyl-N-methyl-3′-((1-methyl-1H-indazol-6-yl)oxy)-[1,1′-biphenyl]-4-carboxamide] |
| 6.00 to 7.00 | 87 | CCc1cc(-c2cccc(Oc3cnc4c(C)nn(C)c4c3)c2)ccc1C(=O)NC [Example 66, 3′-((1,3-dimethyl-1H-pyrazolo[4,3-b]pyridin-6-yl)oxy)-3-ethyl-N-methyl-[1,1′-biphenyl]-4-carboxamide] |
